Drawing on ChEMBL document CHEMBL1201862, “PubChem BioAssay data set” (2004), this text covers AC50 and EC50 for 53 compounds.

The target of data set [1] is Cytochrome P450 2C9 (Homo sapiens, UniProt P11712).
The target in data set [2] is T1, Cytochrome P450 1A2 (Homo sapiens, UniProt P05177).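 Further: PubChem cytochrome P450 panel assay, CYP1A2 panel member.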
T1 sequence (P05177 whole entry): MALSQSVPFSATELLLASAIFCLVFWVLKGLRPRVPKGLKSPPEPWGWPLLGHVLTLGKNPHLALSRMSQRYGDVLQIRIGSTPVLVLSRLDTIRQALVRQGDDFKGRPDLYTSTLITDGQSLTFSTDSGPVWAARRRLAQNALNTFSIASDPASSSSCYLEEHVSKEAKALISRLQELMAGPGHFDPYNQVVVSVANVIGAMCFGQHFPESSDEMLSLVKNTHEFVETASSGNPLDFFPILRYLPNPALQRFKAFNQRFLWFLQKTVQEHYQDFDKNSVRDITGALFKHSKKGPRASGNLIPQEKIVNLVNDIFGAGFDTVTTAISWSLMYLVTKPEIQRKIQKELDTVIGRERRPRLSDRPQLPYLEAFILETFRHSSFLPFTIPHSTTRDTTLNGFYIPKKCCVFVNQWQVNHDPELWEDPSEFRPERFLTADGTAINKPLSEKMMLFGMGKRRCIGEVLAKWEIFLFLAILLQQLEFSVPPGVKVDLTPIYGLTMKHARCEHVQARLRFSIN

A short description of data set [3]: inhibitors of intracellular T. cruzi replication, confirmation, NIH3T3 host cells, beta-gal luminescence (AID 2044).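 Further: intracellular parasites grown in NIH/3T3 mouse fibroblasts as host cells; luminescent beta-galactosidase reporter signal from transgenic T. cruzi replicating inside host cells; inhibitors lower the luminescence signal.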 It counts as functional, cell-based.
Data set [4] in a line: cytotoxicity toward NIH3T3 fibroblasts, dose response, counter-screen, cell-based, ATP luminescence, mouse fibroblasts (AID 2010).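 Further: cells exposed to compound for about 90 hours before reading.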 It counts as functional.
Data set [5] addresses Cytochrome P450 2C19 (Homo sapiens, UniProt P33261). Nature of the data set: Cytochrome panel assay with activity outcomes. Panel member name: p450-cyp2c19 Compounds with AC50 equal or less than 10 uM are considered active. It counts as functional.
Data set [6] has as its target Cytochrome P450 3A4 (Homo sapiens, UniProt P08684).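 Further: CYP3A4 tested as one member of a cytochrome P450 panel screen.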

Calls of active or inactive are those of the source.

Sequence of Cytochrome P450 2C19 (P33261 whole entry): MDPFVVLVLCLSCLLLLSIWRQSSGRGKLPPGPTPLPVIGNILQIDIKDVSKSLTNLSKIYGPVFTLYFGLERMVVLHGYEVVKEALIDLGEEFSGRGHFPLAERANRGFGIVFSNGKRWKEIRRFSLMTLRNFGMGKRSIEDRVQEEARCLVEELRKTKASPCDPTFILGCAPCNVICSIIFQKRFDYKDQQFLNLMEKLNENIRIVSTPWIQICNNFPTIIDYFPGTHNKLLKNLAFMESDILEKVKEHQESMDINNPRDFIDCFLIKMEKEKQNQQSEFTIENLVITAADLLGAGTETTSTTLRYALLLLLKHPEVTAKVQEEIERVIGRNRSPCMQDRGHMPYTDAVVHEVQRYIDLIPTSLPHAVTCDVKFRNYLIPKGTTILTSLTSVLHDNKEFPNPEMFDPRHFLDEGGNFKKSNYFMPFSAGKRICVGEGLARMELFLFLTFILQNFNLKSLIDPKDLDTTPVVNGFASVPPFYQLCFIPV
Sequence of Cytochrome P450 3A4 (P08684 whole entry): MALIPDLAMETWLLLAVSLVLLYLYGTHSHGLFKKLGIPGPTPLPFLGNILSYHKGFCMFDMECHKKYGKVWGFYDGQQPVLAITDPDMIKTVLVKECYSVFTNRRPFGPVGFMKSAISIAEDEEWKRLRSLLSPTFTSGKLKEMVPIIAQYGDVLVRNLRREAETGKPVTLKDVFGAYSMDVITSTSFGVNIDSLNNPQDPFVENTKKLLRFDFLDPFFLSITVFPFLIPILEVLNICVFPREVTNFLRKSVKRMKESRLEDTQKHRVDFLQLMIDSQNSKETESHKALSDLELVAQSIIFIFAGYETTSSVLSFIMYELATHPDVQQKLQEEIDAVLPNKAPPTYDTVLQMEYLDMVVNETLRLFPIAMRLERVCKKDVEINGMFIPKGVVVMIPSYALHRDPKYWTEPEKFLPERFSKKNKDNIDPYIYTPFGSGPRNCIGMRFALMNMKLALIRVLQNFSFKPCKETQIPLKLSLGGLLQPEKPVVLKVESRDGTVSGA
Sequence of Cytochrome P450 2C9 (P11712 whole entry): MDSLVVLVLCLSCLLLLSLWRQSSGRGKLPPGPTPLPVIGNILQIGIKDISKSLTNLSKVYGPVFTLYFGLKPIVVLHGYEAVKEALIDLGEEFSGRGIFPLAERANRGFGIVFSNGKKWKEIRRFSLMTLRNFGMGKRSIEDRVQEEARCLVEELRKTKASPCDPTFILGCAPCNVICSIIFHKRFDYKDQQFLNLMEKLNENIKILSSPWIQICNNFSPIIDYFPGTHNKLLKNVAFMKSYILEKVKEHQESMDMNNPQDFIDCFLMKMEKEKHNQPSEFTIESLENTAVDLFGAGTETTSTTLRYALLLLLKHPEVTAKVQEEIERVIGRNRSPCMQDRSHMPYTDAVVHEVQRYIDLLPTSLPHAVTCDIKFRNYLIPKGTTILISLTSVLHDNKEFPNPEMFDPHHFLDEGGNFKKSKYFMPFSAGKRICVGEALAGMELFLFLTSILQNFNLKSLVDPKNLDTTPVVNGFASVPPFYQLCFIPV

On to `O=C(O)c1ccccc1-c1ccccc1C(=O)Nc1ccc2c(c1)Cc1ccccc1-2`, for which the AC50 (usually the concentration at which the activity in the assay is half-maximal) in data set [1] was 3.16 µM (inconclusive).
In the case of `CCc1cc2cc(C)c(C)cc2nc1SCC(=O)NNC(=O)c1ccco1`, the concentration at half-maximal activity (AC50) in data set [2] is 0.794 µM (inconclusive).
In the case of `COc1ccccc1C(=O)Nn1c(C2CCC2)nc2ccccc2c1=O`, the EC50 (in general, the midpoint of the concentration-response curve) in data set [3] was 2.13 µM (active); in data set [4], > 30 µM (not active).
As for `C[C@@]12CC[C@H]3[C@@H](CC[C@@H]4C[C@H](O)CC[C@]43C)[C@H]1CC[C@H]2O`, the AC50 is 31.6 µM (inconclusive) in data set [5] (read-out: AC50), 15.8 µM (inconclusive) in data set [2], 10 µM (inconclusive) in data set [6] and 25.1 µM (inconclusive) in data set [1].
On to `Cc1cnc(CNc2ccnc(-c3ccoc3)n2)cn1`, for which, in data set [6], the AC50 was 25.1 µM (inconclusive).
With `O=C(/C=C\NCC(=O)c1ccccc1)c1ccccc1`, the AC50 in data set [1] was 1.78 µM (inconclusive).
In the case of `COc1ccc(C2NC(=O)c3sc4nc(C)c(C(C)=O)c(-c5ccc(Cl)cc5)c4c3N2)cc1` (centres undefined), the AC50 in data set [5] (read-out: AC50) is 2 µM (inconclusive).
With `CCc1c(C)nc2c(-c3ccccc3)c(C)nn2c1Nc1ccc(NC(C)=O)cc1`, the EC50 in data set [3] was 1.29 µM (active); in data set [4] it was > 60 µM (not active).
As for `O=C1OC(OC2CCCCC2)(c2ccccc2)c2ccccc21` (centres undefined), the AC50 in data set [6] and in data set [1] was 15.8 µM (inconclusive) each time.
`CCC(=O)Nc1cccc(NC(=O)CSc2nnnn2Cc2ccccc2)c1`: the figures for the AC50 in data set [6] and in data set [1] were 3.55 µM (inconclusive) and 5.01 µM (inconclusive), respectively.
On to `FC(F)(F)c1ccccc1-c1ccc2ncnc(NCc3cccs3)c2c1`, for which the AC50 in data set [1] is 1 µM (inconclusive).
For the compound `CCOC(=O)Cn1cc(C(=O)c2ccccc2F)c2ccccc21`, in data set [6], the AC50 was 35.5 µM (inconclusive).
For `Clc1ccccc1OCCCCn1ccnc1`, the results for the EC50 in data set [3] and in data set [4] were 2.05 µM (active) and > 60 µM (not active), respectively.
On to `Nc1ccccc1/N=N\c1c(S(=O)(=O)O)cc2cc(S(=O)(=O)O)cc(O)c2c1O`, for which, in data set [2], the AC50 is 6.31 µM (inconclusive).
As for `CCOc1ccc(C(F)(F)F)cc1NC(=O)c1ccc(OC)c([N+](=O)[O-])c1`, the half-maximal activity concentration (AC50) is 0.282 µM (inconclusive) in data set [5] (read-out: AC50) and 22.4 µM (inconclusive) in data set [6].
Consider `O=C(Nc1ccccc1)N1CC2(CCN(C(=O)c3ccncc3)CC2)C1`, for which the results for the concentration at half-maximal activity (AC50) in data set [2] and in data set [6] were 10 µM (inconclusive) and 25.1 µM (inconclusive), respectively.
Consider `COCCNC(=O)c1onc(CSc2ccccc2F)c1C(=O)O`, for which the AC50 in data set [5] (read-out: AC50) was 0.141 µM (inconclusive); in data set [6], 35.5 µM (inconclusive).
`COc1ccccc1NC(=O)Cn1nnc(-c2ccccc2NC(=O)c2cc3ccccc3oc2=O)n1`: the values for the AC50 in data set [2] and in data set [1] were 15.8 µM (inconclusive) and 0.794 µM (inconclusive), respectively.
In the case of `O=C(O)c1ccccc1N[C@H](c1ccccc1)c1ccc2cccnc2c1O`, the AC50 in data set [2] was 1.58 µM (inconclusive); in data set [1], 5.01 µM (inconclusive).
Regarding `CN1CCN(C(=O)COc2ccc(S(=O)(=O)N(C)Cc3ccccc3)cc2)CC1`, the results for the EC50 in data set [3] and in data set [4] were 0.189 µM (active) and > 60 µM (not active), respectively.
Turning to `C[C@@H](C(=O)NCc1cccc2ccccc12)[C@H]1C[C@]1(C)[C@H](NC(=O)OCc1ccccc1)c1ccccc1`, the AC50 in data set [2] is 25.1 µM (inconclusive).
In the case of `Oc1ccc2c3c1O[C@H]1c4c(c5ccccc5n4Cc4ccccc4)C[C@]4(O)[C@H](C2)N(CC2CC2)CC[C@@]314`, the AC50 in data set [2] is 31.6 µM (inconclusive).
Regarding `N=C(N)SCc1ccc(Cl)cc1Cl.O=[N+]([O-])c1c(O)c(Cl)cc(Cl)c1Cl`, the AC50 in data set [1] is 7.94 µM (inconclusive).
On the same count and under the same terms, under `O=c1cnc2cnc(Nc3ccccc3)nc2n1CCc1ccccc1` stands 0.251 µM (inconclusive).
Take `O=c1c(-c2ccc(Cl)cc2)nc2cncnc2n1Cc1ccccc1Cl`: the AC50 in data set [2] is 1.26 µM (inconclusive); in data set [6], 12.6 µM (inconclusive).
On to `O=C(O)COc1ccc(-c2nccc(-c3cccs3)n2)cc1`, for which the values for the AC50 in data set [5] (read-out: AC50) and in data set [2] were 31.6 µM (inconclusive) and 15.8 µM (inconclusive), respectively.
Consider `CCOc1ncnc2c1oc1nc(CC(C)C)c3c(c12)CC(C)(C)OC3`, for which the figures for the concentration at half-maximal activity (AC50) in data set [5] (read-out: AC50) and in data set [2] were 39.8 µM (inconclusive) and 22.4 µM (inconclusive), respectively.
As for `O=C(Nc1cccc(-c2cn3cccnc3n2)c1)c1ccc(Br)o1`, the EC50 was 0.554 µM (active) in data set [3] and > 60 µM (not active) in data set [4].
As to `COc1cccc2cc3c(=O)oc4ccccc4c3nc12`, the AC50 in data set [1] is 2.82 µM (inconclusive).
On to `COCC1C2CC[C@H]3C(OCc4ccc(F)cc4C(F)(F)F)OC[C@]4(C)[C@H]3C2=C(CN4C(=O)OC(C)(C)C)[C@H](C)C1COC` (some centres undefined), for which the AC50 in data set [5] (read-out: AC50) is 39.8 µM (inconclusive); in data set [2], 31.6 µM (inconclusive); in data set [1], 20 µM (inconclusive).
With `Cn1cc(-c2nc3cnc(Oc4ccccc4)nc3n(CCC#N)c2=O)c2ccccc21`, the AC50 is 3.16 µM (inconclusive) in data set [2] and 7.94 µM (inconclusive) in data set [6].
`NC(=O)Cn1nc([N+](=O)[O-])nc1Oc1ccc(Br)cc1`: the figures for the EC50 in data set [3] and in data set [4] were 0.174 µM (active) and > 60 µM (not active), respectively.
On to `Cc1c(Br)c([N+](=O)[O-])nn1C(C)C(=O)Nc1nccs1` (centres undefined), for which, in data set [2], the AC50 was 22.4 µM (inconclusive).
With `COc1cc(/C=C(\C#N)c2nc3ccccc3[nH]2)ccc1Oc1ccc([N+](=O)[O-])cn1`, the EC50 is 1.12 µM (active) in data set [3] and > 30 µM (not active) in data set [4].
Regarding `CCCN(C/C=C\I)[C@@H]1CCc2ccc(O)cc2C1`, the AC50 in data set [2] and in data set [1] was 25.1 µM (inconclusive) in each case.
With `COc1cc2nncc(SCc3ccc(Cl)c(Cl)c3)c2cc1OC`, the AC50 in data set [2] was 0.794 µM (inconclusive); in data set [6], 2 µM (inconclusive).
For `Cc1ccc(Nc2nc(-c3sc(NC(=O)c4cccc(Cl)c4)nc3C)cs2)cc1`, the figures for the AC50 in data set [2] and in data set [6] were 14.1 µM (inconclusive) and 11.2 µM (inconclusive), respectively.
For the compound `O=C(Nc1cc(C(F)(F)F)ccc1-n1cncn1)c1ccc(-c2ccccc2)cc1`, the results for the 50% effective concentration (EC50) in data set [3] and in data set [4] were 0.489 µM (active) and > 60 µM (not active), respectively.
Regarding `O=[N+]([O-])c1ccc(S(=O)(=O)N2CCN(c3ccc(N4CCOCC4)nn3)CC2)cc1`, the EC50 was 1.12 µM (active) in data set [3] and > 60 µM (not active) in data set [4].
`C=CC[C@@H]1C=C[C@@H](O/N=C\c2ccc(C(=O)N3[C@H](c4ccc(C)cc4)[C@@H](C)CC[C@H]3C(=O)OC)cc2)[C@@H](CO)O1`: in data set [5] (read-out: AC50), the AC50 was 3.16 µM (inconclusive).
Consider `COC(=O)[C@@]1(Cc2ccc(F)cc2)[C@H]2c3cc(C(=O)N4CCCC4)n(Cc4ccccc4)c3C[C@H]2CN1C(=O)c1ccccc1`, for which the figures for the half-maximal activity concentration (AC50) in data set [5] (read-out: AC50) and in data set [2] were 31.6 µM (inconclusive) and 20 µM (inconclusive), respectively.
Consider `CC(C)C12CN3CC(C(C)C)(CN(C1)C3c1cccnc1)C2=O` (centres undefined), for which the AC50 in data set [2] is 25.1 µM (inconclusive); in data set [1], 3.16 µM (inconclusive).
For the compound `O=C(CSc1nc2ccccc2o1)NC(=O)NCc1ccccc1`, the AC50 in data set [6] is 22.4 µM (inconclusive).
Consider `Cc1cccc(C)c1NC(=O)C[S+]([O-])CC(=O)Nc1ccc(F)cc1F` (centres undefined), for which the AC50 in data set [6] is 14.1 µM (inconclusive); in data set [1], 39.8 µM (inconclusive).
As for `O=S(=O)(O)c1cc(/N=[N+](\[O-])c2cc(S(=O)(=O)O)c3ccccc3c2)cc2ccccc12`, the results for the AC50 in data set [5] (read-out: AC50), in data set [2] and in data set [1] were 3.98 µM (inconclusive), 1.26 µM (inconclusive) and 7.94 µM (inconclusive), respectively.
On to `COc1ccccc1/C=C/C(=O)NCC(=O)N/N=C/c1ccccc1[N+](=O)[O-]`, for which the EC50 was 1.59 µM (active) in data set [3] and > 60 µM (not active) in data set [4].
For `CCOc1cc(/C=N/NC(=O)CNc2cccc(C)c2)ccc1OC(=O)c1ccccc1`, the AC50 in data set [2] was 14.1 µM (inconclusive).
Consider `N#Cc1cc([N+](=O)[O-])ccc1Oc1cccc(/C=N/NC(=O)c2cccc(Cl)c2)c1`, for which the EC50 in data set [3] is 0.531 µM (active); in data set [4], > 60 µM (inconclusive).
For the compound `CC1(C)Cc2ccccc2C(N/N=C/c2cccc(F)c2)=N1`, in data set [5] (read-out: AC50), the AC50 was 25.1 µM (inconclusive).
Turning to `Cc1cccc(C)c1NC(=O)COc1cccc(/C=N/NC(=O)C(=O)NCc2ccccc2)c1`, in data set [5], the AC50 result is “inconclusive”.
Take `CC[n+]1ccccc1C=Cc1ccc(N(C)C)cc1`: the EC50 in data set [3] was 0.572 µM (active); in data set [4], > 60 µM (not active).
Regarding `O=C(O)C1=CCCN(CCOC(c2ccc(C(F)(F)F)cc2)c2ccc(C(F)(F)F)cc2)C1`, the AC50 in data set [6] was 39.8 µM (inconclusive).
Consider `CCN1CCC[C@@H](OC(=O)C(c2ccccc2)c2ccccc2)C1` [PIPERIDOLATE], for which the AC50 in data set [2] is 0.00126 µM (inconclusive).
